Laboratory results taken from patent publication US8969325B2, “TRPV1 antagonists” (AbbVie Inc., priority 2011, dated 2015).
pIC50: −log10 of the molar value.

Columns and labels:
human TRPV1 [1] = target: T1, human TRPV1 (Homo sapiens (Human), UniProt Q8NER1); test: Capsaicin Activation Assay (intracellular Ca2+, FLIPR); format: cell-based; conditions: recombinant HEK293 cells expressing hTRPV1, 50 nM capsaicin
Description: (Logan, Utah). Dulbecco's phosphate-buffered saline (D-PBS) (with 1 mg/mL glucose and 3.6 mg/l Na pyruvate, without phenol red), L-glutamine, hygromycin B, and Lipofectamine® were obtained from Life Technologies (Grand Island, N.Y.). G418 sulfate was obtained from Calbiochem-Novabiochem Corp. (San Diego, Calif.). […] (St. Louis, Mo.). […] The cDNA for human TRPV1 (hTRPV1) was isolated by reverse transcriptase-polymerase chain reaction (RT-PCR) from human small intestine poly A+ RNA supplied by Clontech (Palo Alto, Calif.) using primers designed surrounding the initiation and termination codons identical to the published sequences (Hayes et al. […] The resulting cDNA PCR products were subcloned into pCIneo mammalian expression vector (Promega) and fully sequenced using fluorescent dye-terminator reagents (Prism, PerkinElmer Applied Biosystems Division) and a PerkinElmer Applied Biosystems Model 373 DNA sequencer or Model 310 genetic analyzer. Expression plasmids encoding the hTRPV1 cDNA were transfected into HEK293 cells using Lipofectamine®. Forty-eight hours after transfection, the neomycin-resistant cells were selected with growth medium containing 800 μg/mL Geneticin (Life Technologies, formerly Gibco BRL). Surviving individual colonies were isolated and screened for TRPV1 activity. […] Compound stocks, 10 mM, were prepared in DMSO, and diluted serially across a 384-well plate using a Bravo BenchCel workstation (Agilent Technologies, Santa Clara, Calif.). […] On the day prior to the experiment, the recombinant HEK293 cells expressing human TRPV1 (hTRPV1) were removed from tissue culture flasks and plated in growth medium into black-walled clear-bottom 384-well Biocoat™ poly-D-lysine assay plates (BD Biosciences, Bedford, Mass.) using a Multidrop® dispenser (ThermoScientific, Waltham, Mass.). […] Molecular Devices, Sunnyvale, Calif.) was added to each well using the Multidrop® dispenser. […] Fluorescence readings were made at 1 to 5 second intervals over the course of the experimental run.

human TRPV1 [2] = target: T1, human TRPV1; test: Acid Activation Assay (pH 5.0, intracellular Ca2+, FLIPR); format: cell-based; conditions: percentage of the maximal pH 5.0-induced response remaining; recombinant HEK293 hTRPV1 cells; maximum concentration tested 37.5 μM
Description: Dulbecco's modified Eagle's medium (DMEM) with 4.5 m g/mL D-glucose, fetal bovine serum, L-glutamine, and 2-morpholinoethanesulfonic acid (MES) were purchased from Sigma-Aldrich Co. (St. Louis, Mo.). Dulbecco's phosphate-buffered saline (DPBS) with Ca^2+, Mg^2+, and 1 mg/mL D-glucose (pH 7.4), Geneticin®, 0.25% trypsin-1 mM EDTA, and penicillin-streptomycin were purchased from Invitrogen Corp. (Carlsbad, Calif.). The FLIPR® Calcium 4 assay kit was purchased from Molecular Devices (Sunnyvale, Calif.).
The cDNA for human TRPV1 (hTRPV1) was isolated by reverse transcriptase-polymerase chain reaction (RT-PCR) from human small intestine poly A+ RNA supplied by Clontech (Palo Alto, Calif.) using primers designed surrounding the initiation and termination codons identical to the published sequences (Hayes et al. Pain 2000, 88, 205-215). The resulting cDNA PCR products were subcloned into pCIneo mammalian expression vector (Promega) and fully sequenced using fluorescent dye-terminator reagents (Prism, PerkinElmer Applied Biosystems Division) and a PerkinElmer Applied Biosystems Model 373 DNA sequencer or Model 310 genetic analyzer. Expression plasmids encoding the hTRPV1 cDNA were transfected into HEK293 cells using Lipofectamine®. Forty-eight hours after transfection, the neomycin-resistant cells were selected with growth medium containing 800 μg/mL Geneticin (Life Technologies, formerly Gibco BRL). Surviving individual colonies were isolated and screened for TRPV1 activity. Cells expressing recombinant TRPV1 were maintained at 37° C. in DMEM containing 4 mM L-glutamine, 300 μg/mL G418 (Calbiochem) and 10% fetal bovine serum under a humidified 5% CO2 atmosphere.
The functional activity of compounds at the TRPV1 receptor was determined by measurement of intracellular Ca^2+ levels ([Ca^2+]i) using the Fluorescence Imaging Plate Reader (FLIPR)TETRA®. All compounds were tested over a 12-point one-half-log concentration range with 37.5 μM being the maximum concentration tested. Compound stocks, 10 mM, were prepared in DMSO, and diluted serially across a 384-well plate using a Bravo BenchCel workstation (Agilent Technologies, Santa Clara, Calif.). On the day prior to the experiment, the recombinant HEK293 cells expressing human TRPV1 (hTRPV1) were removed from tissue culture flasks and plated in growth medium into black-walled clear-bottom 384-well Biocoat™ poly-D-lysine assay plates (BD Biosciences, Bedford, Mass.) using a Multidrop® dispenser (ThermoScientific, Waltham, Mass.). On the day of the experiment growth medium was removed, and the no-wash FLIPR® Calcium-4 dye (λEX=470-495 nm, λEM=515-575 nm) was added to each well using the Multidrop® dispenser. The plated cells were incubated for 90-120 min in the dark at 25° C. The test compounds dissolved in DMSO were then added to the plates using an Agilent Bravo workstation (Agilent Technologies Inc., Santa Clara, Calif.). Three minutes later, a pH 5.0 solution was added to each well. Reagents were delivered at a rate of 40 μL/sec, and the final assay volume was 80 μL. Acidic pH solutions were prepared by titration of DPBS/MES with 1 N HCl. The intensity of the fluorescence was captured and digitally transferred to an interfaced PC. The maximum peak measured for the concentration range tested was used to calculate the corresponding peak increase in fluorescence over baseline (relative fluorescence units) which was expressed as the percentage (max % remain) of the maximal pH 5.0-induced response.
Table 1 reports the percentage (max % remain) of the maximal pH 5.0-induced response measured for the compounds tested in the recombinant HEK293 cell assay. Most of the compounds tested inhibited calcium flux only partially following TRPV1 activation by the pH 5.0 solution.

T1 sequence (Q8NER1 whole entry): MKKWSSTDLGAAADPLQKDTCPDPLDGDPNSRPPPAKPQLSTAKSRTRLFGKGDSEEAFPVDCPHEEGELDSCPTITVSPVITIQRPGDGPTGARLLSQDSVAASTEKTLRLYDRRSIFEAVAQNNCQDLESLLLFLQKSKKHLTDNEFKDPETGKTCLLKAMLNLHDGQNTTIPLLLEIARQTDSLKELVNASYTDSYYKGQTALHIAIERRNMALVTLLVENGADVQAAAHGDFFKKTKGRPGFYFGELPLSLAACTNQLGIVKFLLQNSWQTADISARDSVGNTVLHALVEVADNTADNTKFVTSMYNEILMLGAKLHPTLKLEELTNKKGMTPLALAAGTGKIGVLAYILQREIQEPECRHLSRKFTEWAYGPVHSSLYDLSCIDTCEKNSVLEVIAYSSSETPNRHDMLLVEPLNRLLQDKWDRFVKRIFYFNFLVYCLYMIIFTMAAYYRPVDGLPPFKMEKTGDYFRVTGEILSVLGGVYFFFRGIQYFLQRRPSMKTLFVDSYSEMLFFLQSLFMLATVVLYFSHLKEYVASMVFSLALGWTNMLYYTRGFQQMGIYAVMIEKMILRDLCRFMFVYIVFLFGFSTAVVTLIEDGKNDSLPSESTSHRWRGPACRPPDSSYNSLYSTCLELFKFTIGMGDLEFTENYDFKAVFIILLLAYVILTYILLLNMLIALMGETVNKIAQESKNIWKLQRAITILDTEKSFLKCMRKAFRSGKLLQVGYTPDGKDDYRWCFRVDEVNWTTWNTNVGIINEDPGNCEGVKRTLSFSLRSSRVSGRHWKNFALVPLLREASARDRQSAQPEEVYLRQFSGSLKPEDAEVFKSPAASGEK

Row | Compound | pIC50 (human TRPV1 [1]) | human TRPV1 H^+ (max % remain) (human TRPV1 [2])
1 | CCC1(CC)C[C@@H](NC(=O)Nc2ccc3c(c2)NC(=O)N(CCO)C3)c2cccc(F)c2O1 [Example 44, 1-[(4R)-2,2-diethyl-8-fluoro-3,4-dihydro-2H-chromen-4-yl]-3-[3-(2-hydroxyethyl)-2-oxo-1,2,3,4-tetrahydroquinazolin-7-yl]urea] | 7.19 | 3%
2 | O=C1CCc2ccc(NC(=O)N[C@@H]3CC(CF)(CF)Oc4cc(OC(F)(F)F)ccc43)cc2N1 [Example 211, 1-[(4R)-2,2-bis(fluoromethyl)-7-(trifluoromethoxy)-3,4-dihydro-2H-chromen-4-yl]-3-(2-oxo-1,2,3,4-tetrahydroquinolin-7-yl)urea] | 7.70 | 55%
3 | CN1C(=O)NCc2c(NC(=O)N[C@@H]3C[C@@](C)(CF)Oc4ccccc43)cccc21 [Example 164, 1-[(2S,4R)-2-(fluoromethyl)-2-methyl-3,4-dihydro-2H-chromen-4-yl]-3-(1-methyl-2-oxo-1,2,3,4-tetrahydroquinazolin-5-yl)urea] | 6.92 | 35%
4 | CN1Cc2ccc(NC(=O)N[C@@H]3CC(C)(C)Oc4c(F)cccc43)cc2NC1=O [Example 210, 1-[(4R)-8-fluoro-2,2-dimethyl-3,4-dihydro-2H-chromen-4-yl]-3-(3-methyl-2-oxo-1,2,3,4-tetrahydroquinazolin-7-yl)urea] |  | 60%
5 | CC1(C)C[C@@H](NC(=O)Nc2ccc3c(c2)NC(=O)C(N2CCOCC2)C3)c2ccc(F)cc2O1 (stereo partly drawn) [Example 301, 1-[(4R)-7-fluoro-2,2-dimethyl-3,4-dihydro-2H-chromen-4-yl]-3-[3-(morpholin-4-yl)-2-oxo-1,2,3,4-tetrahydroquinolin-7-yl]urea] | 5.89 | 60%
6 | 1-[(2R,4R)-7-chloro-2-(difluoromethyl)-2-methyl-3,4-dihydro-2H-chromen-4-yl]-3-(2-oxo-1,2,3,4-tetrahydroquinolin-7-yl)urea [Example 30] | 8.40 | 31%
7 | CN1C(=O)NCc2c(NC(=O)N[C@@H]3CC(C)(C)Oc4ccccc43)cccc21 [Example 4, 1-[(4R)-2,2-dimethyl-3,4-dihydro-2H-chromen-4-yl]-3-(1-methyl-2-oxo-1,2,3,4-tetrahydroquinazolin-5-yl)urea] |  | 35%
8 | Cn1c(=O)ccc2c(NC(=O)N[C@@H]3C[C@@](C)(CF)Oc4cc(Cl)ccc43)cccc21 [Example 41, 1-[(2S,4R)-7-chloro-2-(fluoromethyl)-2-methyl-3,4-dihydro-2H-chromen-4-yl]-3-(1-methyl-2-oxo-1,2-dihydroquinolin-5-yl)urea] | 7.92 | 74%
9 | Cn1c(=O)ccc2c(NC(=O)N[C@@H]3CCc4cc(F)ccc43)cccc21 [Example 83, 1-[(1R)-5-fluoro-2,3-dihydro-1H-inden-1-yl]-3-(1-methyl-2-oxo-1,2-dihydroquinolin-5-yl)urea] | 7.72 | 36%
10 | CC1(C)C[C@@H](NC(=O)Nc2ccc3c(c2)NC(=O)CC3)c2cccc(C(F)(F)F)c2O1 [Example 218, 1-[(4R)-2,2-dimethyl-8-(trifluoromethyl)-3,4-dihydro-2H-chromen-4-yl]-3-(2-oxo-1,2,3,4-tetrahydroquinolin-7-yl)urea] | 5.44 | 101%
11 | 1-[(4R)-7-chloro-2,2-diethyl-3,4-dihydro-2H-chromen-4-yl]-3-(1-methyl-2-oxo-1,2,3,4-tetrahydroquinazolin-5-yl)urea [Example 145] | 6.80 | 7%
12 | CCN1C(=O)NCc2c(NC(=O)N[C@@H]3CC(C)(C)Oc4ccccc43)cccc21 [Example 8, 1-[(4R)-2,2-dimethyl-3,4-dihydro-2H-chromen-4-yl]-3-(I-ethyl-2-oxo-1,2,3,4-tetrahydroquinazolin-5-yl)urea] | 7.03 | 1%
13 | CN1C(=O)NCc2c(NC(=O)N[C@@H]3C[C@](C)(C(F)F)Oc4cc(Cl)ccc43)cccc21 [Example 10, 1-[(2R,4R)-7-chloro-2-(difluoromethyl)-2-methyl-3,4-dihydro-2H-chromen-4-yl]-3-(1-methyl-2-oxo-1,2,3,4-tetrahydroquinazolin-5-yl)urea] | 7.77 | 19%
14 | O=C1COc2ccc(NC(=O)N[C@@H]3CCOc4cc(OC(F)(F)F)ccc43)cc2N1 [Example 115, 1-(3-oxo-3,4-dihydro-2H-1,4-benzoxazin-6-yl)-3-[(4R)-7-(trifluoromethoxy)-3,4-dihydro-2H-chromen-4-yl]urea] | < 4.42 | 91%
15 | CN1C(=O)NCc2c(NC(=O)N[C@@H]3CC(CF)(CF)Oc4c3ccc(Cl)c4F)cccc21 [Example 3, 1-[(4R)-7-chloro-8-fluoro-2,2-bis(fluoromethyl)-3,4-dihydro-2H-chromen-4-yl]-3-(1-methyl-2-oxo-1,2,3,4-tetrahydroquinazolin-5-yl)urea] |  | 19%
16 | CN1C(=O)NCc2c(NC(=O)N[C@@H]3CC(C)(C)Oc4cc(Cl)ccc43)cccc21 [Example 6, 1-[(4R)-7-chloro-2,2-dimethyl-3,4-dihydro-2H-chromen-4-yl]-3-(1-methyl-2-oxo-1,2,3,4-tetrahydroquinazolin-5-yl)urea] |  | 30%
17 | CN1C(=O)CCc2ccc(NC(=O)N[C@@H]3CCOc4c3cccc4C(F)(F)F)cc21 [Example 284, 1-(1-methyl-2-oxo-1,2,3,4-tetrahydroquinolin-7-yl)-3-[(4R)-8-(trifluoromethyl)-3,4-dihydro-2H-chromen-4-yl]urea] |  | 79%
18 | CN1C(=O)NCc2c(NC(=O)N[C@@H]3CC(C)(C)c4ccccc43)cccc21 [Example 158, 1-[(1R)-3,3-dimethyl-2,3-dihydro-1H-inden-1-yl]-3-(1-methyl-2-oxo-1,2,3,4-tetrahydroquinazolin-5-yl)urea] |  | 35%
19 | CCC1(CC)C[C@@H](NC(=O)Nc2cccc3c2CNC(=O)N3C)c2ccc(F)cc2O1 [Example 143, 1-[(4R)-2,2-diethyl-7-fluoro-3,4-dihydro-2H-chromen-4-yl]-3-(1-methyl-2-oxo-1,2,3,4-tetrahydroquinazolin-5-yl)urea] |  | 19%
